# According to patent US10273453B2, “Method for stem cell differentiation in vivo by delivery of morphogenes with mesoporous silica and corresponding pharmaceutical active ingredients” (Nanologica AB, priority 2010, dated 2019):
# Test system: bNCSCs
# Assay: in vitro differentiation assay of bNCSCs
# Type: cell-based, mouse
# Details: bNCSC cultures
# Experimental: bNCSCs were isolated in a semiclonal fashion from EGFP embryos on embryonic day (E)11, as described previously (Hjerling-Leffler J, Marmigére F, Heglind M, et al. The boundary cap: a source of neural crest stem cells that generate multiple sensory neuron subtypes. Development 2005; 132:2623-32). Briefly, the DRGs along with boundary caps were mechanically separated from the isolated spinal cord and mechano-enzymatically dissociated using Collagenase/Dispase (1 mg/ml) and DNase (0.5 mg/ml) for 30 minutes at room temperature. Cells were plated at 0.5-1×10^5 cells/cm^2 in N2 medium containing B27 (Gibco, Grand Island, N.Y., www.invitrogen.com) as well as EGF and basic fibroblast growth factor (R&D Systems, Minneapolis, www.rndsystems.com; 20 ng/ml, respectively). […]
# The AMS were added to the cultures and the time-window for their presence before dissolving in the culture medium was established. We also analyzed their contact with the stem cells. […] After staining 10 photographs were taken from each slide and the ratios of neurons and glial cells were calculated in all types of experiments. We also calculated the neurite length per cell as a measure of the level of neuronal differentiation (Kozlova E N. Differentiation and migration of astrocytes in the spinal cord following dorsal root injury in the adult rat. Eur J Neurosci 2003; 17:782-90).
compound,measurement,value
"CC1=C(/C=C/C(C)=C/C=C/C(C)=C/C(=O)O)C(C)(C)CCC1 [RA, retinoic acid]","differentiation of neurons based on neurite lengths, increase compared to non-treated neurospheres",up to 37%
same,"neuron/glia ratio, increase compared to neurospheres-alone",3.4 times
